# The source made the active and inactive calls. The rule behind the calls is not given here.
# Legend:
# Rattus norvegicus [1] = test: Antiinflammatory activity in complete Freund's adjuvant-induced Wistar rat arthritis model assessed as reduction in IL6 expression in serum at 30 mg/kg, ip administered from 11th day to 20th day by ELISA; type: functional, organism-based
# [2] = molecular target: Dual specificity calcium/calmodulin-dependent 3',5'-cyclic nucleotide phosphodiesterase 1A (Homo sapiens) (UniProt P54750); test: Inhibition of recombinant N-terminal GST-tagged full-length human PDE1A1 expressed in Sf9 cells using FAM-cAMP as substrate at 10 uM incubated for 60 mins by fluorescence plate reader analysis
# [3] = Toxicity in zebrafish embryo assessed as effect in notochord formation at 1 to 100 uM; parameters: species or system Danio rerio; settings: in vivo
# [4] = Tmax in BALB/c mouse at 10 mg/kg, iv measured for 24 hrs post dose by LC-MS/MS analysis; type: ADME, organism-based; settings: in vivo
# [5] = Inhibition of recombinant N-terminal GST-tagged full length human PDE4A1A expressed in Sf9 cells using cAMP as substrate at 10 uM incubated for 60 mins by fluorescence plate reader analysis
# [6] = molecular target: cGMP-inhibited 3',5'-cyclic phosphodiesterase 3B (Homo sapiens) (UniProt Q13370); test: Inhibition of recombinant N-terminal GST-tagged human PDE3B (592-end aa) expressed in Sf9 cells using FAM-cAMP as substrate at 10 uM incubated for 60 mins by fluorescence plate reader analysis
# [7] = AUClast in BALB/c mouse at 10 mg/kg, iv measured for 24 hrs post dose by LC-MS/MS analysis; type: ADME, organism-based; parameters: dose 10 mg/kg, route intravenous, time 0 - last; settings: in vivo
# [8] = AUC (0 to infinity) in BALB/c mouse at 10 mg/kg, iv measured for 24 hrs post dose by LC-MS/MS analysis; type: ADME, organism-based; parameters: dose 10 mg/kg, time infinity, route intravenous; settings: in vivo
# [9] = Cardiotoxicity in zebrafish embryos assessed as artio-ventricular ratio at 1 to 100 uM; type: toxicity, Danio rerio
# [10] = Cmax in BALB/c mouse at 10 mg/kg, iv measured for 24 hrs post dose by LC-MS/MS analysis; type: ADME, organism-based; parameters: dose 10 mg/kg, route intravenous; settings: in vivo
# Rattus norvegicus [11] = test: Antiarthritic activity in complete Freund's adjuvant-induced Wistar rat arthritis model assessed as reduction in pannus formation at 30 mg/kg, ip administered from 11th day to 20th day by H&E staining based microscopic analysis; type: functional, organism-based
# [12] = Half life in rat liver microsomes at 5 uM by LC-MS/MS analysis; type: ADME, Microsome
# [13] = Toxicity in zebrafish embryo assessed as effect in intestine formation at 1 to 100 uM; type: tissue-based, Danio rerio; settings: in vivo
# Homo sapiens = species: Homo sapiens; test: Selectivity index, ratio of IC50 for PDE4D2 (unknown origin) to IC50 for recombinant His-tagged human PDE4B expressed in sf9 cells using cAMP as substrate by PDELight HTS cAMP phosphodiesterase Kit based luminometry
# [14] = molecular target: High affinity cGMP-specific 3',5'-cyclic phosphodiesterase 9A (Homo sapiens) (UniProt O76083); test: Inhibition of recombinant N-terminal GST-tagged full length human PDE9A2 expressed in Sf9 cells using F AM-cGMP as substrate at 10 uM incubated for 60 mins by fluorescence plate reader analysis
# [15] = Toxicity in zebrafish embryo assessed as effect in tail formation at 1 to 100 uM; parameters: species or system Danio rerio; settings: in vivo
# [16] = Toxicity in zebrafish embryo assessed as effect in fin formation at 1 to 100 uM; parameters: species or system Danio rerio; settings: in vivo
# RAW264.7 [17] = test: Antiinflammatory activity in mouse RAW264.7 cells assessed as inhibition of LPS-induced iNOS expression preincubated for 30 mins followed by LPS stimulation and incubated for 10 hrs by immunoblotting analysis; type: functional, cell-based
# [18] = molecular target: 3',5'-cyclic-AMP phosphodiesterase 4B (Homo sapiens, UniProt Q07343); test: Inhibition of human recombinant His-tagged PDE4B expressed in Sf9 cells using cAMP as substrate at 10 uM preincubated with enzyme for 15 mins followed by substrate addition and incubated for 1 hr by PDELight HTS cAMP phosphodiesterase Kit based luminometry relative to control
# RAW264.7 [19] = test: Antiinflammatory activity in mouse RAW264.7 cells assessed as inhibition of LPS-induced TNFalpha mRNA expression preincubated for 30 mins followed by LPS stimulation and incubated for 10 hrs by qPCR analysis; type: functional, cell-based
# Rattus norvegicus [20] = test: Antiarthritic activity in complete Freund's adjuvant-induced Wistar rat arthritis model assessed as reduction in synovial inflammation at 30 mg/kg, ip administered from 11th day to 20th day by H&E staining based microscopic analysis; type: functional, organism-based
# [21] = Intrinsic clearance in rat liver microsomes at 5 uM by LC-MS/MS analysis; type: ADME, Microsome; settings: read-out: CLH
# Rattus norvegicus [22] = test: Antiinflammatory activity in complete Freund's adjuvant-induced Wistar rat arthritis model assessed as reduction in IL1beta expression in serum at 30 mg/kg, ip administered from 11th day to 20th day by ELISA; type: functional, organism-based
# [23] = molecular target: 3',5'-cyclic-AMP phosphodiesterase 4A (Homo sapiens) (UniProt P27815); test: Inhibition of recombinant N-terminal GST tagged human PDE4A4B (2-end aa) expressed in Sf9 cells using FAM-cAMP as substrate at 10 uM incubated for 60 mins by fluorescence plate reader analysis
# [24] = molecular target: Cone cGMP-specific 3',5'-cyclic phosphodiesterase subunit alpha' (Homo sapiens) (UniProt P51160); test: Inhibition of recombinant N-terminal GST-tagged full length human PDE6C expressed in Sf9 cells using FAM-cGMP as substrate at 10 uM incubated for 60 mins by fluorescence plate reader analysis
# [25] = Half life in BALB/c mouse at 10 mg/kg, iv measured for 24 hrs post dose by LC-MS/MS analysis; type: ADME, organism-based; settings: in vivo
# Rattus norvegicus [26] = test: Antiarthritic activity in complete Freund's adjuvant-induced Wistar rat arthritis model assessed as reduction in paw volume at 30 mg/kg, ip administered from 11th day to 20th day by vernier caliper analysis; type: functional, organism-based
# [27] = Toxicity in zebrafish embryo assessed as effect in swim bladder formation at 1 to 100 uM; parameters: species or system Danio rerio; settings: in vivo
# [28] = molecular target: cGMP-dependent 3',5'-cyclic phosphodiesterase (Homo sapiens) (UniProt O00408); test: Inhibition of recombinant N-terminal-GST-Th-tagged full length human PDE2A1 expressed in Sf9 cells using FAM-cAMP as substrate at 10 uM incubated for 60 mins by fluorescence plate reader analysis
# [29] = molecular target: High affinity cAMP-specific and IBMX-insensitive 3',5'-cyclic phosphodiesterase 8A (Homo sapiens) (UniProt O60658); test: Inhibition of recombinant N-terminal GST-tagged full length human PDE8A1 expressed in Sf9 cells using FAM-cAMP as substrate at 10 uM incubated for 60 mins by fluorescence plate reader analysis
# [30] = Hepatotoxicity in zebrafish embryos assessed as liver degeneration at 1 to 100 uM incubated for 7 dpf; type: toxicity, Danio rerio; settings: in vivo
# [31] = molecular target: 3',5'-cyclic-AMP phosphodiesterase 4D (Homo sapiens, UniProt Q08499); test: Inhibition of PDE4D2 (unknown origin) using cAMP as substrate preincubated with enzyme for 15 mins followed by substrate addition and incubated for 1 hr by PDELight HTS cAMP phosphodiesterase Kit based luminometry
# 3',5'-cyclic-AMP phosphodiesterase 4B, sequence (Q07343 whole entry): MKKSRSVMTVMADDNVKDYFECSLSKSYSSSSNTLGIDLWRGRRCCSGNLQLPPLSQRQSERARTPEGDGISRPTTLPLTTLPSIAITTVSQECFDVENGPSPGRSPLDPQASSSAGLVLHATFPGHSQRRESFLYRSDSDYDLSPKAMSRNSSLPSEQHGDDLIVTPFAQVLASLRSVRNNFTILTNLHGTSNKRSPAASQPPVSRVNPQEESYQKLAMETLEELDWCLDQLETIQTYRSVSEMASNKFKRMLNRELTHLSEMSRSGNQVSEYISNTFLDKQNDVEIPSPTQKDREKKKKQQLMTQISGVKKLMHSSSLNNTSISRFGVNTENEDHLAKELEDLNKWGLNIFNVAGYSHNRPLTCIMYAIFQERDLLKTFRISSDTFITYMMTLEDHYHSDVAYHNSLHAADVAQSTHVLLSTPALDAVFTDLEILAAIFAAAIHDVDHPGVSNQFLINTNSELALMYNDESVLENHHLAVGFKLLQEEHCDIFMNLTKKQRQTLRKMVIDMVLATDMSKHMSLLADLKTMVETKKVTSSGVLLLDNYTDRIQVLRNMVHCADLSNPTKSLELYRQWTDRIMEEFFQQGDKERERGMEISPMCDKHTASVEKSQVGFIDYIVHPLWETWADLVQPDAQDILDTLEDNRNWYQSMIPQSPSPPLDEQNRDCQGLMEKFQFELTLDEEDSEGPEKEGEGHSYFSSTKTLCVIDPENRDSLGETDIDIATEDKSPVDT
# Cone cGMP-specific 3',5'-cyclic phosphodiesterase subunit alpha' (Homo sapiens), sequence (P51160 whole entry): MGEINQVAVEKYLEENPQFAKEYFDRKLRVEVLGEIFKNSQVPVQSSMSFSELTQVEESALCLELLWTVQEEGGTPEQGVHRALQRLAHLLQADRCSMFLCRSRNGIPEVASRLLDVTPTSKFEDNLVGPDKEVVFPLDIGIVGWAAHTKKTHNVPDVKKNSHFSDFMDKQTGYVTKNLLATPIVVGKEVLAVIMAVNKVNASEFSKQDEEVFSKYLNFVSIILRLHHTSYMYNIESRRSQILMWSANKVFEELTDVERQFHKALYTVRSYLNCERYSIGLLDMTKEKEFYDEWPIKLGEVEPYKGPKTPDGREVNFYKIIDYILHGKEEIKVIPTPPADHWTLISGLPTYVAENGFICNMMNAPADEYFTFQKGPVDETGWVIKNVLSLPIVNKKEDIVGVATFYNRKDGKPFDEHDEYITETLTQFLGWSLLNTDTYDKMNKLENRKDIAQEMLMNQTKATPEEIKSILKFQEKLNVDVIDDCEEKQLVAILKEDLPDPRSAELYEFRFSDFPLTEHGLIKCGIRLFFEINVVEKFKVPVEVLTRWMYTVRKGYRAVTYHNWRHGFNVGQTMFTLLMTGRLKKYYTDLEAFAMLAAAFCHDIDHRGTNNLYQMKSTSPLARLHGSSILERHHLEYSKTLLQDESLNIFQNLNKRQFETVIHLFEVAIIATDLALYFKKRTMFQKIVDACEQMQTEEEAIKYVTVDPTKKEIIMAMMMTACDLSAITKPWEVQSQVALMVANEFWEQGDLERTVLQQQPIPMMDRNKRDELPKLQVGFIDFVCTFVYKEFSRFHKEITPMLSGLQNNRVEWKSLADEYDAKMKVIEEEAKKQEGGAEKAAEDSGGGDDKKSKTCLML
# High affinity cAMP-specific and IBMX-insensitive 3',5'-cyclic phosphodiesterase 8A (Homo sapiens), sequence (O60658 whole entry): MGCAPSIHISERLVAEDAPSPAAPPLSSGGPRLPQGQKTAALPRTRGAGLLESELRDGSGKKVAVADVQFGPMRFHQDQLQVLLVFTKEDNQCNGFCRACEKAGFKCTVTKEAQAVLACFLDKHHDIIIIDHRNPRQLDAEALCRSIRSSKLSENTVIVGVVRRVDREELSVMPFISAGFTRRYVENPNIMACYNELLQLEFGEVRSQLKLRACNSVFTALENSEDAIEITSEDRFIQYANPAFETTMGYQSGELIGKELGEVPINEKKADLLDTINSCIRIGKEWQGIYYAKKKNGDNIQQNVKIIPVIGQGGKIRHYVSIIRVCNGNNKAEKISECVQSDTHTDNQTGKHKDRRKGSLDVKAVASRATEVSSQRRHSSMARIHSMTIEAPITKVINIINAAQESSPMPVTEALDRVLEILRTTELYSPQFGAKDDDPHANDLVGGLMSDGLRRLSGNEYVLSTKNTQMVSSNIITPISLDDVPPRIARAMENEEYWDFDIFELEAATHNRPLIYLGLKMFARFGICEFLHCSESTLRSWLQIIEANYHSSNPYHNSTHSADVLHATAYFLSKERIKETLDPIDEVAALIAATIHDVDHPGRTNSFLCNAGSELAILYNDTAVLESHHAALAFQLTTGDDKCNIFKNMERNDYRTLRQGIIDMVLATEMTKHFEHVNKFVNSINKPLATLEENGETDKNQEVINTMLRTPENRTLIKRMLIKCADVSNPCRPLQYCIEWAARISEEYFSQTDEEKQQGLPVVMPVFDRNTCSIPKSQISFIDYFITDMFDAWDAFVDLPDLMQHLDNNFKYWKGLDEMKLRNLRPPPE
# cGMP-dependent 3',5'-cyclic phosphodiesterase (Homo sapiens), sequence (O00408 whole entry): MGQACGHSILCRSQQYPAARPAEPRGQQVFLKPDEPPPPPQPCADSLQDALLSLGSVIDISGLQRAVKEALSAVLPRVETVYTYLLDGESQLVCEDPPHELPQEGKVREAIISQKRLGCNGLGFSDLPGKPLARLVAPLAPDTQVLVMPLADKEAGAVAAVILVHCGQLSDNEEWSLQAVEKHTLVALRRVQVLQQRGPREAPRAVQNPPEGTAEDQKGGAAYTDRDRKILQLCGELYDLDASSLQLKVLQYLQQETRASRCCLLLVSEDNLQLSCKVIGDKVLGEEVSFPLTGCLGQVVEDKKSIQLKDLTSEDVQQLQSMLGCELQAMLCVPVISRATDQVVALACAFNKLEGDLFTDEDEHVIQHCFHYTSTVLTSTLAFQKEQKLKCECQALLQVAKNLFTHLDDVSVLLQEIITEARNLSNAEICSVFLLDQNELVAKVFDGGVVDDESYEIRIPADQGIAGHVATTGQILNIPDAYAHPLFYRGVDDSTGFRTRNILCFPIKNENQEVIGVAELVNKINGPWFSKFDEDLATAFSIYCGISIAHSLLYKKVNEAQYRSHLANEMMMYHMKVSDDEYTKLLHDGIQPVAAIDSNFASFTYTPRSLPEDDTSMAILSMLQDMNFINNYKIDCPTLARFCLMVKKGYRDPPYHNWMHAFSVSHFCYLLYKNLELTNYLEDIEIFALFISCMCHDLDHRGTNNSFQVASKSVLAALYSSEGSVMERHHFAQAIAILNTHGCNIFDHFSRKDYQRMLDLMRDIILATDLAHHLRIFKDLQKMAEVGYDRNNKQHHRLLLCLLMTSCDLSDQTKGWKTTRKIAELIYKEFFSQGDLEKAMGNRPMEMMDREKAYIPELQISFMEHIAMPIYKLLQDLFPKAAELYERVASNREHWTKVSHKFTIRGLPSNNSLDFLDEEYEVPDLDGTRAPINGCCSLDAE
# High affinity cGMP-specific 3',5'-cyclic phosphodiesterase 9A (Homo sapiens), sequence (O76083 whole entry): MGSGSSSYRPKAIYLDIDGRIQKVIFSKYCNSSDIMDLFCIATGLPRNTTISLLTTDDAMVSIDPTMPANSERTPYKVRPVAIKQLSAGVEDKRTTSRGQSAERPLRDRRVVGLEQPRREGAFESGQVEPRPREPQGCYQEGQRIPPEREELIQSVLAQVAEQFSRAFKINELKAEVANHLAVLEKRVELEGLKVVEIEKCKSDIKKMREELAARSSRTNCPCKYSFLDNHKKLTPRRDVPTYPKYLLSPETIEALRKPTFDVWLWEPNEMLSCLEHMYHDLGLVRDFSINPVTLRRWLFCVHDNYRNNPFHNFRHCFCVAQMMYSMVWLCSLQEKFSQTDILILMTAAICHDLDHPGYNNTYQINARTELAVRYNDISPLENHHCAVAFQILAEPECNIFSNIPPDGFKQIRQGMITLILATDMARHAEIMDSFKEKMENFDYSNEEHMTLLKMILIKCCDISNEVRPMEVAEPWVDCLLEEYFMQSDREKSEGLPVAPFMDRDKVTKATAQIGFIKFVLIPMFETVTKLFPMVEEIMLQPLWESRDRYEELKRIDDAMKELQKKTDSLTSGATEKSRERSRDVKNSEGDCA
# 3',5'-cyclic-AMP phosphodiesterase 4A (Homo sapiens), sequence (P27815 whole entry): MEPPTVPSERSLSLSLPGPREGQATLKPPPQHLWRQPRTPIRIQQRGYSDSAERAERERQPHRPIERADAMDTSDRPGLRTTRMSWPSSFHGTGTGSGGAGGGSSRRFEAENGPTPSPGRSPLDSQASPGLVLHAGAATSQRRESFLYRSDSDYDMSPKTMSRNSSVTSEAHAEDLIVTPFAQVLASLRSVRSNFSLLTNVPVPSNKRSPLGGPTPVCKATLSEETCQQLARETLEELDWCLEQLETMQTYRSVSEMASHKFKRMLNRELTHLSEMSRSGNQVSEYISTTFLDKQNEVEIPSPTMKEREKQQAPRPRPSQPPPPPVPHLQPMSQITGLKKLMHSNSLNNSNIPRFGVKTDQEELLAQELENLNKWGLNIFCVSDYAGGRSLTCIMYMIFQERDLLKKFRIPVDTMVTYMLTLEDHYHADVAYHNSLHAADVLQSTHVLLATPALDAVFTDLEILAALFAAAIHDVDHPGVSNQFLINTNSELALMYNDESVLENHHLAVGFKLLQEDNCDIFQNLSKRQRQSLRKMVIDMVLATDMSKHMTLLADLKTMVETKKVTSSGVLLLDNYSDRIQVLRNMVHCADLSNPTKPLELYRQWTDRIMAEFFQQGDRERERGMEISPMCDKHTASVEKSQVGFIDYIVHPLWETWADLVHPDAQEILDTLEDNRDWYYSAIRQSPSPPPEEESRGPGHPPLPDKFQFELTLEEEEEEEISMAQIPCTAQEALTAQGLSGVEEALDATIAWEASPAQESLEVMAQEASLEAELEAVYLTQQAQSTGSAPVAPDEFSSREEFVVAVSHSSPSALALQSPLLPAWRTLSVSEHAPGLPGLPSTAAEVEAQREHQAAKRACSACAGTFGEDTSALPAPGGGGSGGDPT
structure (smiles),measurement,setting,value
C=CCn1cc(-c2nc3ccccc3nc2Cl)c2cc(OC)ccc21,inhibition,Rattus norvegicus [1],Active
same,inhibition,[2],12%
same,Activity,[3],Toxic
same,Tmax,[4],4.8 min
same,inhibition,[5],40%
same,inhibition,[6],1%
same,AUC(0-t) at 24 h,[7],1090 ng·h/mL
same,AUC(0-inf),[8],1160 ng·h/mL
same,Activity,[9],Non-Toxic
same,Cmax,[10],2850 ng/mL
same,inhibition,Rattus norvegicus [11],Active
same,half-life at 5 µM,[12],52.5 min
same,Activity,[13],Non-Toxic
same,Ratio IC50,Homo sapiens,27
same,inhibition,[14],9%
same,Activity,[15],Non-Toxic
same,Activity,[16],Non-Toxic
same,inhibition,RAW264.7 [17],Active
same,inhibition,[18],> 75%
same,inhibition,RAW264.7 [19],Active
same,inhibition,Rattus norvegicus [20],Active
same,microsomal CLint at 5 µM,[21],52.8 µL/min/mg
same,inhibition,Rattus norvegicus [22],Active
same,inhibition,[23],36%
same,inhibition,[24],2%
same,half-life,[25],38.4 min
same,inhibition,Rattus norvegicus [26],Active
same,Activity,[27],Non-Toxic
same,inhibition,[28],3%
same,inhibition,[29],3%
same,Activity,[30],Non-Toxic
same,IC50,[31],10.7 µM
